Active and inactive are the calls of the source. The calls are words filed in the database; no cut-off is given here.
Assays:
[1] = tested on: Neuroblastoma cell; assay: Antiproliferative activity against human Neuroblastoma cell assessed as inhibition of cell growth incubated for 60 hrs by CCK-8 method; type: functional, cell-based
[2] = Antiproliferative activity against human Embryonic lung cell assessed as inhibition of cell growth incubated for 60 hrs by CCK-8 method; type: toxicity, cell-based

SMILES	Activity [1]	Activity [2]
N#C[Se]CCCOc1ccc2cc(C(=O)N3N=C(c4ccc(Br)cc4)CC3c3ccc(F)cc3)c(=O)oc2c1 (centres undefined)	Active	Non-toxic
COc1ccc(C2CC(c3ccc(F)cc3)=NN2C(=O)c2cc3ccc(OCCC[Se]C#N)cc3oc2=O)cc1 (centres undefined)	Active	Non-toxic

From ChEMBL document CHEMBL6103579, “Antiproliferative activity of selenium-enriched coumarin derivatives on the SK-N-SH neuroblastoma cell line: Mechanistic insights” (Eur J Med Chem, 2025)
